Data from US12527775B2 (priority 2020, dated 2026).
Read-outs that look alike come from different tables or passages of the source.

How the values were obtained:
[1] = target: human recombinant 5-HT2C receptor (Homo sapiens (Human), UniProt P28335); test: biochemical; type: binding
Experimental: Test Example 2: 5-HT2C Receptor Binding Inhibition Test
(Each experimental condition)
Cell membrane: 0.5 μg of Jump-In HEK cell membrane (expressing human recombinant 5-HT2C receptor) per well
Assay buffer: Tris-HCl 50 mmol/L (pH 7.4) containing NaCl 120 mmol/L, MgCl2·6H2O 1 mmol/L, KCl 5 mmol/L, 0.1% BSA and CaCl2) 2 mmol/L
Radioactive ligand: [^3H]-Mesulergine with a final concentration of 1 nmol/L
(§1) Non-specific ligand: Serotonin HCl with a final concentration of 500 μmol/L
(§2) The Kd value was calculated when the lot of cell membrane was changed. […] The radioactive ligand solution was serially diluted from 16 nM at a 2-fold ratio and the count was confirmed with a liquid scintillator. […] After that, filtration was performed with Cell harvester (PerkinElmer). The radioactive ligand solution was dispensed into an empty well of the GF/B UniFilter plate at 10 μL/well. […] The GF/B UniFilter plate was allowed to stand overnight at room temperature. […] The Saturation curve was drawn from the measured value, and the Kd value was calculated from the slope of the Scatchard Plot.
(§3) (Binding Test of the Compound According to the Present Invention)
(§4) After that, filtration was performed with Cell harvester (PerkinElmer).

[2] = target: human recombinant 5-HT2A receptor (Homo sapiens (Human), UniProt P28223); test: biochemical; type: binding
Experimental: Test Example 1: 5-HT2A Receptor Binding Inhibition Test
(Each Experimental Condition)
Cell membrane: 15 μg of Jump-In HEK cell membrane (expressing human recombinant 5-HT2A receptor) per well
Assay buffer: Tris-HCl 50 mmol/L (pH 7.4) containing NaCl 120 mmol/L, MgCl2·6H2O 1 mmol/L, KCl 5 mmol/L, 0.1% BSA and CaCl2 2 mmol/L
Radioactive ligand: [^3H]-Ketanserin with a final concentration of 3 nmol/L
as §1, §2, §3, §4

[3] = human serotonin 5-HT2C receptor binding, [3H]-Mesulergine, read-out: h-5-HT2C Ki
[4] = [3H]-Ketanserin 3 nmol/L, Jump-In HEK cell membrane, class symbols, read-out: h-5-HT2A Ki
[5] = [3H]-Mesulergine 1 nmol/L, Jump-In HEK cell membrane, read-out: human serotonin 5-HT2C receptor binding activity, Ki
[6] = [3H]-Ketanserin 3 nmol/L, Jump-In HEK cell membrane, read-out: human serotonin 5-HT2A receptor binding activity, Ki

Sequence of human recombinant 5-HT2C receptor (P28335 whole entry, looked up): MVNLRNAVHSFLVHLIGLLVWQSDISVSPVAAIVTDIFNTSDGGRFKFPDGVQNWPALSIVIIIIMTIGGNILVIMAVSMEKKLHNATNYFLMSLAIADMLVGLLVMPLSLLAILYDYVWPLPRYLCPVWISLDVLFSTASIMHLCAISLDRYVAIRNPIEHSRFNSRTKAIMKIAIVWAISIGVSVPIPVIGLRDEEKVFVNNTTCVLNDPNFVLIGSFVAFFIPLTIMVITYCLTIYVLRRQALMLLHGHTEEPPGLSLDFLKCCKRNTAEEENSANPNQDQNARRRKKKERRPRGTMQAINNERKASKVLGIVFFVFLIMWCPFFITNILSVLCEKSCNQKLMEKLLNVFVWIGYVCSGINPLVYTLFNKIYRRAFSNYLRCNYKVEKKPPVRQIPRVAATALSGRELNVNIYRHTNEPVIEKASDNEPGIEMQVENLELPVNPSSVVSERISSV

Compound | Ki [1, 3] [nM] | Ki [2, 4] [nM] | also measured
CC(C)COc1ccc(CNC(=O)N(Cc2ncccc2F)[C@@H]2CCN(C)C[C@@H]2F)cc1 (racemic) [Compound I-069] | > 100 | 10 to 100 | –
CC(C)COc1ccc(CNC(=O)N(Cc2ncccc2F)[C@@H]2CCNC[C@@H]2F)cc1 (racemic) [Compound I-073] | > 100 | 10 to 100 | –
CC(C)COc1ccc(CNC(=O)N(Cc2ccc(F)cn2)[C@H]2CCN(C)C[C@@H]2O)cc1 (racemic) [Compound I-088] | – | – | Ki [1, 5]: 134 nM; Ki [2, 6]: 25.7 nM
CC(C)COc1ccc(CNC(=O)N(Cc2ccn(C)n2)C2CCNCC23CC3)cc1 (racemic) [Compound I-090] | < 10 | < 10 | –
CC(C)COc1ccc(CNC(=O)N(Cc2ccc(F)cn2)C2CCNCC2(F)F)cc1 (racemic) [Compound I-091] | < 10 | < 10 | –
CC(C)COc1ccc(CNC(=O)N(Cc2ccn(C)c2)[C@@H]2CCNC[C@@H]2F)cc1 (racemic) [Compound I-093] | < 10 | < 10 | –
Cc1cc(CN(C(=O)NCc2ccc(OCC(C)C)cc2)C2CCN(C)CC23CC3)nn1C (racemic) [Compound I-094] | < 10 | < 10 | –
COc1ccc(CNC(=O)N(Cc2ccc(F)cn2)C2CCN(C)CC23CC3)cc1 (racemic) [Compound I-099] | – | – | Ki [1]: < 10 nM; Ki [2]: < 10 nM
Cc1ccc(CNC(=O)N(Cc2ccc(F)cn2)C2CCN(C)CC23CC3)cc1 (racemic) [Compound I-100] | 10 to 100 | < 10 | –
Cc1ccc(CNC(=O)N(Cc2ccc(F)cn2)C2CCNCC23CC3)cc1 (racemic) [Compound I-101] | 10 to 100 | < 10 | –
COc1ccc(CNC(=O)N(Cc2cc(C)n(C)n2)C2CCN(C)CC23CC3)cc1 (racemic) [Compound I-104] | < 10 | < 10 | –
Cc1ccc(CNC(=O)N(Cc2cc(C)n(C)n2)C2CCN(C)CC23CC3)cc1 (racemic) [Compound I-105] | < 10 | < 10 | –
CCCOc1ccc(CNC(=O)N(Cc2ccn(C)n2)C2CCNCC23CC3)cc1 (racemic) [Compound I-107] | 10 to 100 | < 10 | –
CC(C)COc1ccc(CNC(=O)N(Cc2ccn(C)c2)[C@@H]2CCN(C)C[C@@H]2F)cc1 (racemic) [Compound I-108] | < 10 | < 10 | –
CCCOc1ccc(CNC(=O)N(Cc2cc(C)n(C)n2)C2CCN(C)CC23CC3)cc1 (racemic) [Compound I-109] | < 10 | < 10 | –
CN1CCC(N(Cc2ccn(C)n2)C(=O)NCc2ccc(OCC3CC3)cc2)C2(CC2)C1 (racemic) [Compound I-110] | < 10 | < 10 | –
CN1CCC(N(Cc2ccn(C)n2)C(=O)NCc2ccc(OC(F)F)cc2)C2(CC2)C1 (racemic) [Compound I-111] | < 10 | < 10 | –
CC(C)COc1ccc(CNC(=O)N(Cc2ccc(F)cn2)C2CCN(C)C3(CC3)C2)cc1 (racemic) [Compound I-136] | – | – | Ki [1, 5]: 148 nM; Ki [2, 6]: 8.02 nM
CC(C)COc1ccc(CNC(=O)N(Cc2ccc(Cl)cn2)C2CCN(C)CC2)cc1 [Compound I-009] | – | – | Ki [1, 5]: 7.92 nM; Ki [2, 6]: 0.291 nM

Compound | Ki [1, 3] [nM] | Ki [2, 4] [nM] | also measured
CC(C)COc1ccc(CNC(=O)N(Cc2ccn(C)n2)C2CCN(C)CC2)cc1 [Compound I-021] | – | – | Ki [1, 5]: 50.7 nM; Ki [2, 6]: 0.858 nM
CC(C)COc1ccc(CNC(=O)N(Cc2cc3ccccc3cn2)C2CCN(C)CC2)cc1 [Compound I-037] | – | – | Ki [1, 5]: 28.2 nM; Ki [2, 6]: 0.654 nM
CC(C)COc1ccc(COC(=O)N(Cc2ccc(F)cn2)C2CCN(C)CC2)cc1 [Compound I-042] | – | – | Ki [1, 5]: 2.31 nM; Ki [2, 6]: 1.15 nM
COc1ccc(CNC(=O)N(Cc2ccc(F)cn2)C2CCN(C)CC2)cc1 [Compound I-043] | – | – | Ki [1, 5]: 55.7 nM; Ki [2, 6]: 2.52 nM
CC(C)COc1ccc(CC(=O)N(Cc2ccc(F)cn2)C2CCN(C)CC2)cc1 [Compound I-068] | – | – | Ki [1, 5]: 49.9 nM; Ki [2, 6]: 6.52 nM
CC(C)COc1ccc(CNC(=O)N(Cc2ccc(F)c3cccnc23)C2CCN(C)CC2)cc1 [Compound I-070] | 10 to 100 | < 10 | –
CC(C)COc1ccc(CNC(=O)N(Cc2ccc(F)c3ccoc23)C2CCN(C)CC2)cc1 [Compound I-071] | – | – | Ki [1, 5]: 60.7 nM; Ki [2, 6]: 13.3 nM
CC(C)COc1ccc(CNC(=O)N(Cc2cc3c(cn2)OCCO3)C2CCN(C)CC2)cc1 [Compound I-072] | – | – | Ki [1, 5]: 617 nM; Ki [2, 6]: 219 nM
CC(C)COc1ccc(CNC(=O)N(Cc2cn(C)c3cccnc23)C2CCN(C)CC2)cc1 [Compound I-074] | 10 to 100 | 10 to 100 | –
CN1CCC(N(Cc2ccc(F)cn2)C(=O)NCc2cccc(O)c2)CC1 [Compound I-075] | – | – | Ki [1, 5]: 1310 nM; Ki [2, 6]: 130 nM
CN1CCC(N(Cc2ccc(F)cn2)C(=O)NCc2ccccc2O)CC1 [Compound I-076] | – | – | Ki [1, 5]: 263 nM; Ki [2, 6]: 62 nM
CC(C)COc1ccc(CNC(=O)N(Cc2ncc(O)cc2F)C2CCN(C)CC2)cc1 [Compound I-077] | > 100 | 10 to 100 | –
Cc1cnc(CN(C(=O)NCc2ccc(OCC(C)C)cc2)C2CCN(C)CC2)cn1 [Compound I-078] | > 100 | 10 to 100 | –
CC(C)COc1ccc(CNC(=O)N(Cc2cn(C)c3ccccc23)C2CCN(C)CC2)cc1 [Compound I-079] | > 100 | > 100 | –
CC(C)COc1ccc(CNC(=O)N(Cc2ncc(F)cc2O)C2CCN(C)CC2)cc1 [Compound I-080] | 10 to 100 | 10 to 100 | –
CC(C)COc1ccc(CNC(=O)N(Cc2ccc(F)c3cc[nH]c23)C2CCN(C)CC2)cc1 [Compound I-081] | > 100 | > 100 | –
CN1CCC(N(Cc2ccc(F)cn2)C(=O)NCc2ccc(Br)cc2)CC1 [Compound I-082] | – | – | Ki [1, 5]: 28.8 nM; Ki [2, 6]: 3.74 nM
C=Cc1ccc(CNC(=O)N(Cc2ccc(F)cn2)C2CCN(C)CC2)cc1 [Compound I-083] | 10 to 100 | < 10 | –
CN1CCC(N(Cc2ccc(F)cn2)C(=O)NCc2ccc(Cl)cc2)CC1 [Compound I-084] | – | – | Ki [1, 5]: 65.2 nM; Ki [2, 6]: 5.61 nM

Compound | Ki [1, 3] [nM] | Ki [2, 4] [nM] | also measured
CC(C)COc1ccc(CNC(=O)N(Cc2ccc(F)cn2)[C@@H]2CCN(C)C[C@@H]2F)cc1 [Compound I-085] | – | – | Ki [1, 5]: 96.2 nM; Ki [2, 6]: 23.8 nM
CC(C)COc1ccc(CNC(=O)N(Cc2ccc(F)cn2)C2CCN(C)C(CO)C2)cc1 (stereo not shown) [Compound I-089] | 10 to 100 | < 10 | –
CN1CCC(N(Cc2ccc(F)cn2)C(=O)NCc2ccc(OCC(C)(F)F)cc2)CC1 [Compound I-092] | < 10 | < 10 | –
CN1CCC(N(Cc2ccc(F)cn2)C(=O)NCc2ccc(OCC(F)(F)F)cc2)CC1 [Compound I-095] | < 10 | < 10 | –
Cc1cc(CN(C(=O)NCc2ccc(OCC(C)C)cc2)C2CCN(C)CC2)nn1C [Compound I-096] | 10 to 100 | < 10 | –
C[C@H](F)COc1ccc(CNC(=O)N(Cc2ccc(F)cn2)C2CCN(C)CC2)cc1 [Compound I-097] | 10 to 100 | < 10 | –
C[C@@H](F)COc1ccc(CNC(=O)N(Cc2ccc(F)cn2)C2CCN(C)CC2)cc1 [Compound I-098] | 10 to 100 | < 10 | –
CC(C)COc1ccc(CNC(=O)N(Cc2ccc(F)cn2)[C@H]2CCN(C)C[C@H]2F)cc1 [Compound I-103] | < 10 | < 10 | –
COc1ccc(COC(=O)N(Cc2ccn(C)c2)C2CCN(C)CC2)cc1 [Compound I-106] | < 10 | < 10 | –
CC(C)CNc1ccc(CNC(=O)N(Cc2ccc(F)cn2)C2CCN(C)CC2)cc1 [Compound I-112] | < 10 | < 10 | –
CN1CCC(N(Cc2ccc(F)cn2)C(=O)NCc2ccc(OC3CC3)cc2)CC1 [Compound I-113] | 10 to 100 | < 10 | –
CC(C)COc1ccc(CNC(=O)N(Cc2ccc(F)cn2)[C@H]2CCNC[C@H]2F)cc1 [Compound I-115] | < 10 | < 10 | –
CCc1ccc(CNC(=O)N(Cc2ccc(F)cn2)C2CCN(C)CC2)cc1 [Compound I-116] | – | – | Ki [1, 5]: 12.2 nM; Ki [2, 6]: 1.45 nM
CN1CCC(N(Cc2ccc(F)cn2)C(=O)NCc2ccc(OCC(F)(F)C(F)F)cc2)CC1 [Compound I-117] | < 10 | < 10 | –
CC(C)COc1ccc(CNC(=O)N(Cc2ccn(C(F)F)n2)C2CCN(C)CC2)cc1 [Compound I-118] | 10 to 100 | < 10 | –
CCCOc1ccc(CNC(=O)N(Cc2ccc(F)cn2)[C@H]2CCNC[C@H]2F)cc1 [Compound I-119] | < 10 | < 10 | –
Cc1ccc(CNC(=O)N(Cc2ccc(F)cn2)[C@H]2CCN(C)CC23CC3)cc1 [Compound I-120] | < 10 | < 10 | –
CN1CCC(N(Cc2ccc(F)cn2)C(=O)NCc2ccc(N(C)C)cc2)CC1 [Compound I-121] | > 100 | 10 to 100 | –
